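Cells were grown in 96-well plates and exposed to each compound for 48 hours at five concentrations; endpoints were interpolated linearly between bracketing concentrations, or set to the highest concentration if not reached. GI50 is the concentration that inhibits growth by half. Definition used: TGI = concentration required for complete inhibition of growth.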
Experiments:
Assay in all cases: NCI anticancer screen, dose series, 48 h; in the data active means GI50 below about 0.43 µM; inactive means the rest
[1] = tested on: DMS 114 small cell lung
[2] = tested on: TK-10 renal
[3] = tested on: SR leukemia
[4] = tested on: OVCAR-4 ovarian
[5] = tested on: HCT-15 colon
[6] = tested on: K-562 leukemia
[7] = tested on: SK-MEL-28 melanoma
[8] = tested on: EKVX NSCLC
[9] = tested on: CCRF-CEM leukemia
[10] = tested on: HCT-116 colon
[11] = tested on: ACHN renal
[12] = tested on: HOP-62 NSCLC
[13] = tested on: UO-31 renal
[14] = tested on: LOX IMVI melanoma
[15] = tested on: OVCAR-8 ovarian
[16] = tested on: CAKI-1 renal
[17] = tested on: DLD-1 colon
[18] = tested on: NCI-H522 lung
[19] = tested on: 786-0 renal
[20] = tested on: SK-OV-3 ovarian
[21] = tested on: SNB-19 CNS
[22] = tested on: U251 CNS
[23] = tested on: DMS 273 small cell lung
[24] = tested on: MOLT-4 leukemia
[25] = tested on: HL-60(TB) leukemia
[26] = tested on: OVCAR-3 ovarian
[27] = tested on: RPMI-8226 leukemia
[28] = tested on: HCC-2998 colon
[29] = tested on: NCI-H460 lung
[30] = tested on: MALME-3M melanoma
[31] = tested on: UACC-62 melanoma
[32] = tested on: HT29 colon
[33] = tested on: IGROV1 ovarian
[34] = tested on: RXF 393 renal
[35] = tested on: A498 renal
[36] = tested on: M14 melanoma
[37] = tested on: SF-295 CNS
[38] = tested on: NCI-H23 lung
[39] = tested on: A549 NSCLC
[40] = tested on: KM20L2 colon
[41] = tested on: M19-MEL melanoma
[42] = tested on: COLO 205 colon
[43] = tested on: SK-MEL-2 melanoma
[44] = tested on: SN12C renal
[45] = tested on: KM12 colon
[46] = tested on: SK-MEL-5 melanoma
[47] = tested on: LXFL 529 NSCLC
[48] = tested on: SF-268 CNS
[49] = tested on: XF 498 CNS
[50] = tested on: UACC-257 melanoma
[51] = tested on: SW-620 colon

CC(C)=[CH][Sb]([Br])([CH]=C(C)C)([CH]=C(C)C)[CH]=C(C)C
60.4 µM: TGI [10]
inactive: GI50 [1] 1.61 µM | GI50 [2] 34.9 µM | GI50 [3] 10.9 µM | GI50 [4] 22.7 µM | GI50 [5] > 100 µM | GI50 [6] 6.7 µM | GI50 [7] 11.3 µM | GI50 [8] 4.88 µM | GI50 [9] 4.8 µM | GI50 [10] 13.9 µM | GI50 [11] 28.8 µM | GI50 [12] 40.3 µM | GI50 [13] 35.4 µM | GI50 [14] 31.6 µM | GI50 [15] 23 µM | GI50 [16] 46.1 µM | GI50 [17] 37.3 µM | GI50 [18] 1.5 µM | GI50 [19] 34.4 µM | GI50 [20] 2.5 µM | GI50 [21] 14.7 µM | GI50 [22] 12.2 µM | GI50 [23] 5.98 µM | GI50 [24] 18.8 µM | GI50 [25] 1.88 µM | GI50 [26] 2.44 µM | GI50 [27] 0.781 µM | GI50 [28] 26 µM | GI50 [29] 16.4 µM | GI50 [30] 5.28 µM | GI50 [31] 11.1 µM | GI50 [32] 15.1 µM | GI50 [33] 5.57 µM | GI50 [34] 21.2 µM | GI50 [35] 41 µM | GI50 [36] 10.1 µM | GI50 [37] 17.3 µM | GI50 [38] 6.12 µM | GI50 [39] 19.1 µM | GI50 [40] 13.1 µM | GI50 [41] 6.14 µM | GI50 [42] 1.93 µM | GI50 [43] 15.4 µM | GI50 [44] 24.7 µM | GI50 [45] 3.63 µM | GI50 [46] 3.82 µM | GI50 [47] 6.58 µM | GI50 [48] 11.7 µM | GI50 [49] 16.4 µM | GI50 [50] 4.87 µM | GI50 [51] 26.4 µM
20.2 µM: TGI [18]
24.3 µM: TGI [25] | TGI [46]
37.8 µM: TGI [36]
59.8 µM: TGI [26]
87.9 µM: TGI [45]
56.8 µM: TGI [23]
38.4 µM: TGI [27]
81.1 µM: TGI [34]
66.3 µM: TGI [33]
5.89 µM: TGI [42]
54.4 µM: TGI [29]
89.4 µM: TGI [21]
74.5 µM: TGI [48]
8.83 µM: TGI [20]
79.3 µM: TGI [22]
53.4 µM: TGI [37]
46.7 µM: TGI [38]
88.6 µM: TGI [8]
> 100 µM: TGI [2] | TGI [3] | TGI [4] | TGI [5] | TGI [6] | TGI [7] | TGI [9] | TGI [11] | TGI [12] | TGI [13] | TGI [14] | TGI [15] | TGI [16] | TGI [17] | TGI [19] | TGI [24] | TGI [28] | TGI [30] | TGI [31] | TGI [32] | TGI [35] | TGI [39] | TGI [40] | TGI [41] | TGI [43] | TGI [44] | TGI [47] | TGI [49] | TGI [50] | TGI [51]
4.85 µM: TGI [1]

From PubChem BioAssay (NCI)
